Assay [1] has as its system AAT derived from Chamaemelum nobile. Briefly: Substrate specificity of AAT derived from Chamaemelum nobile. The following applies: 0.12 mM acyl-CoA, pH 8.5, butyl methacrylate = 100%; for Relative activity with ethanol: 40 mM ethanol; for Relative activity with n-butanol: 40 mM n-butanol; for Relative activity with n-hexanol: 40 mM n-hexanol; for Relative activity with methanol: 40 mM methanol. The format is biochemical. As to the method:
The substrate specificity of AAT was evaluated by the purified fraction obtained by MonoQ 5/50 GL column chromatography in Example 9.
In a 2-mL capacity screw vial, a reaction solution (50 mM Tris-HCl (pH 8.5), 40 mM alcohol, 0.12 mM acyl-CoA) was prepared, into which the purified fraction was added to be 500 μL. The vial was sealed and the mixture was reacted at 30° C. for one hour.
After the reaction was completed, 50 μL of 10 mM 2-hexanon was added as the internal sstandard, and solvent extraction was conducted using 200 μL octane or hexane. Centrifugation was conducted and 8 μL of the separated liquid was injected into GC to measure the ester produced through the enzymatic reaction. The amount of ester was calculated by the calibration curve using an internal standard method. The GC measuring conditions were set the same as in Example 9 except that the column temperature was adjusted appropriately for each of the target esters (see Table 4). To determine the quantity of n-butyl propionate, since the present column is unable to separate its peak from the peak of n-butanol, the absolute calibration curve method was employed under the GC-MS analysis conditions the same as in Example 1 (however, temperature conditions were changed to 80° C.→1 min→10° C./min→200° C.·5 min).
Relative activity values are shown based on the specific activity of butyl methacrylate set as 100%.

Assay [2] shares this test system. Briefly: Km of AAT derived from Chamaemelum nobile. The format is biochemical. The following applies: 40 mM n-hexanol, Tris-HCl pH 8.5, 30° C., 2 hours. As to the method: The Km values for methacrylyl-CoA and acetyl-CoA were measured using the purified fraction obtained by MonoQ 5/50 GL column chromatography in Example 9. A 500 μL reaction solution was prepared by adding the purified fraction, 40 mM n-hexanol and methacrylyl-CoA or acetyl-CoA at each concentration to a 50 mM Tris-HCl buffer (pH 8.5). The vial was sealed, and reaction was carried out at 30° C. for 2 hours.
After the reaction was completed, the same GC analysis as in Example 10 was conducted to measure the ester produced in the enzymatic reaction. The […] (Km) was applied to a Michaelis-Menten expression to calculate the values using a Kaleidagraph software made by HULINKS.

As for `CC(C)C(=O)SCCNC(=O)CCNC(=O)[C@H](O)C(C)(C)COP(=O)(O)OP(=O)(O)OC[C@H]1O[C@@H](n2cnc3c(N)ncnc32)[C@H](O)[C@@H]1OP(=O)(O)O` [isobutyryl-CoA], in assay [1], the “Relative activity with ethanol” value came to 5% and the “Relative activity with n-butanol” value stood at 114%.
Regarding `CCCCCC(=O)SCCNC(=O)CCNC(=O)[C@H](O)C(C)(C)COP(=O)(O)OP(=O)(O)OC[C@H]1O[C@@H](n2cnc3c(N)ncnc32)[C@H](O)[C@@H]1OP(=O)(O)O` [hexanoyl-CoA], in assay [1], the “Relative activity with ethanol” value amounted to 11% and the “Relative activity with n-butanol” value was 21%.
Turning to `CC(=O)SCCNC(=O)CCNC(=O)[C@H](O)C(C)(C)COP(=O)(O)OP(=O)(O)OC[C@H]1O[C@@H](n2cnc3c(N)ncnc32)[C@H](O)[C@@H]1OP(=O)(O)O` [acetyl-CoA], in assay [1], the “Relative activity with n-butanol” value is on record as 37% and the “Relative activity with n-hexanol” value amounted to 84%. Moreover, in assay [2], the Michaelis-Menten constant (Km) worked out at 711 µM.
In the case of `CCCC(=O)SCCNC(=O)CCNC(=O)[C@H](O)C(C)(C)COP(=O)(O)OP(=O)(O)OC[C@H]1O[C@@H](n2cnc3c(N)ncnc32)[C@H](O)[C@@H]1OP(=O)(O)O` [butyryl-CoA], in assay [1], the “Relative activity with n-butanol” value was found to be 40%.
As for `C=C(C)C(=O)SCCNC(=O)CCNC(=O)[C@H](O)C(C)(C)COP(=O)(O)OP(=O)(O)OC[C@H]1O[C@@H](n2cnc3c(N)ncnc32)[C@H](O)[C@@H]1OP(=O)(O)O` [methacrylyl-CoA], in assay [1], the “Relative activity with ethanol” value was 4%, the “Relative activity with methanol” value came out at 1%, the “Relative activity with n-butanol” value amounted to 100% and the “Relative activity with n-hexanol” value is recorded as 182%. Also, the Km in assay [2] came to 41 µM.
Take `CCC(=O)SCCNC(=O)CCNC(=O)[C@H](O)C(C)(C)COP(=O)(O)OP(=O)(O)OC[C@H]1O[C@@H](n2cnc3c(N)ncnc32)[C@H](O)[C@@H]1OP(=O)(O)O` [propionyl-CoA]: in assay [1], the “Relative activity with methanol” value turned out to be 4% and the “Relative activity with n-butanol” value worked out at 136%.
